Assays:
[1] = test system: BBN-induced bladder tumor; assay: BBN-induced bladder tumor mouse model; format: in vivo, mice
Description: FIG. 9. […] Tumor-bearing mice were treated according to the experimental scheme (A). Representative photographs of the gross tumors from mice with different treatments (B). Tumor weights of the different treatment groups (C) (mean±SD, at least 9 mice from 3 independent experiments). Representative H&E stained images of tumors of different treatment groups (D). Histograms of the pathological analysis for the proportions of hyperplastic and neoplastic changes in bladder H&E stained section of mice with different treatments (E). *p<0.05; **p<0.01 by Student's t test.
For BBN-induced bladder tumor formation, a 0.05% concentration of BBN (TCI America, Portland, OR) was dissolved in drinking water, and BBN-containing water in a dark bottle was provided to 8-10 week old female C57BL/6 mice ad libitum for 10-20 weeks until hematuria score is over 2+ (Arkray Aution Sticks urine strip) as a sign of bladder tumor formation. […]
To test the anti-tumor effects of intravesical xenogeneic cell therapy in combination with chemotherapeutic agents in delaying tumor progression, BBN-induced tumor mouse model, which simulates the human bladder tumorigenesis from hyperplasia, carcinoma in situ (CIS) to invasive carcinoma was used. […] The progression of BBN-induced bladder tumors in the treatment groups and control group was assessed by macroscopic and histopathological examination from harvested bladders. […]

[2] = test system: MBT-2-luc orthotopic graft bladder tumor; assay: Orthotopic MBT-2-luc graft bladder tumor mouse model
Description: The tumor bearing mice were enrolled when tumor bioluminescent signal reached 10^5 total plex and treated according to the treatment scheme (A).
Tumors from mice of different treatment groups were harvested, processed and sectioned for tumor cell Ki-67 IHC and TUNEL assay. Tumor sections were evaluated for cell proliferation 45 with Ki-67 IHC staining (A). Ki-67 positive cells on tumor sections were counted and quantified from mice of 3 independent experiments (B). Tumor sections were stained with TUNEL (FITC) and observed under a fluorescent microscope (C). DAPI was used for nuclear staining. TUNEL positive cells on tumor sections were counted and quantified from mice of 3 independent experiments (D). Values are expressed as mean±standard error of the mean (n=3). *p<0.05; **p<0.01; ***p<0.001, by Student's t test. Scale bar, 50 μm.
Tumors from mice given different treatments were analyzed by IHC for lymphocyte and NK cell infiltration. Representative images of anti-CD4 (A), CD8 (B) and NKG2D (C) IHC staining on tumor sections. Quantification of CD4+ T lymphocytes (D), CD8+T lymphocytes (E) and NKG2D+ NK cells (F) in tumors for each treatment group by counting the positive cells in four randomly selected HPFs among 3 mice in each group, and data were expressed as the means±SD. Error bars represent SD. *p<0.05; **p<0.01; ***p<0.001, by Student's t test.
Female C3H/HeJ 9-week-old mice were used to establish the intramural orthotopic model. MBT-2 murine urothelial carcinoma cells stably expressing luciferase gene (MBT-2-luc) were intramuscularly injected to mouse bladder walls and capture tumor imaged by Xenogen IVIS 200 once per week. The mice are divided control and experiment groups when tumors are reached around 1×10^5 p/s total flux in bioluminescence imaging. The tumor bearing mice were divided into 4 treatment groups: (i). Vehicle control, (ii). Xenogeneic urothelial cell: intravesical of instillation xenogeneic urothelial cells (1×10^6 cells), once a week, day 3 for 4 weeks, (iii). […] A 24-gauge catheter is introduced into the lumen of the bladder through the urethra. Xenogeneic urothelial cells, 1×10^6 in a 100 μl suspension is then injected into the bladder. To prevent voiding of the xenogeneic urothelial cells, the catheter is held in place for at least 40 minutes with the injection syringe attached. The catheter is removed before the mouse recovered from anesthesia. The responses of mice are analyzed on BLI total flux intensity changes from the baseline.

[3] = IHC on tumor sections, vs vehicle

Gemcitabine plus cisplatin [GC]
tumor weight ([1]; harvested bladders after 4 weeks treatment): significantly reduced | proportion of mice progressed to invasive carcinoma ([1]; histopathological analysis of H&E sections): significantly lower | NKG2D+ NK cell infiltration in tumors [2, 3]: not observed | tumor CD4+ T cell infiltration [2, 3]: increased | tumor CD8+ T cell infiltration [2, 3]: increased | tumor growth ([2]; bioluminescence, vs vehicle-treated groups, 4 weeks treatment): significantly decreased
